Marks after values point to notes of the source that are not given here.
What was measured:
[1] = Shake flask determination of distribution coefficient (log D); assay type: physicochemical; conditions: 1-octanol / phosphate buffer
Experimental: Shake flask method of determining log D—Miniaturized version of log D assay described in Stopher, D. and McClean, S. J. Pharm. Pharmacol. 1990, 42, 144.
Nadolol, mexiletine, propranolol, quinidine, amitriptyline, and chlorproazine were dissolved in DMSO to a concentration of 10 mM and used as controls in each plate. D-neo-Inositol, 5-[[(2E)-3-[4-[[(5E)-5-[[(3-chloro-2,6-difluorophenyl)methoxy]imino]-5,6-dideoxy-β-D-arabino-hexofuranosyl]oxy]-3-hydroxyphenyl]-2-methyl-1-oxo-2-propenyl]amino]-5-deoxy-1,2-O-methylene-(9Cl) (CAS 247598-17) is used as an Internal Standard (IS).
All liquid handling steps were performed by a Biomek FX. Buffer-saturated 1-octanol (149 μL/well) was added to duplicate 1 mL capacity 96-well plates. Test compounds (10 mM in DMSO; 2 μL/well) and controls (10 mM in DMSO; 2 μL/well) were transferred from Matrix 2D barcoded storage tubes to the 96-well plates.
Following the addition of 1-octanol saturated phosphate buffer (149 μL/well), the plates were sealed with silicone well cap-mats. […]
Samples were analyzed by micro-flow reversed-phase liquid chromatography coupled to tandem mass spectrometry (μfLC-MS/MS). […]
Peak areas were corrected by dilution factors and incorporating internal standard, and the ratio of the corrected peak areas were used to calculate the results (log D value). The log D value for each compound was calculated using the following equation: […]

RSV A2 = assay: RSV plaque reduction assay in HepG2 cells; assay type: cell-based; conditions: human respiratory syncytial virus, HepG2, read-out: RSV A2 plaque, HepG2, EC50 (nM)
Source text: The RSV plaque reduction assay is an infectivity assay which allows quantification of the number of infectious units in a distinct foci of RSV infection. As each plaque originates from a single infectious virus particle an accurate calculation of the anti-viral effect can be obtained by counting plaques in the presence and absence of an anti-viral compound. HepG2 cells (ECACC: 85011430) were passaged in flasks and seeded in 24-well plates in DMEM containing antibiotics and supplemented with 10% FBS. During inoculation and subsequent incubation, cells were cultured in DMEM containing 2% FBS. 100 plaque forming unit (PFU)/well of RSV (RSV A2 VR-1540) was mixed with serial dilutions of compound. Subsequently, 100 μL of the virus/compound mixtures was added to confluent HepG2 cell monolayers. Plates were incubated at 37° C. in a humidified 5% CO2 incubator for 2 hrs. The inoculum was then removed and 1 ml of overlay (4% CMC in 2% DMEM) was added to each well. Cells were cultured for 48 h at 37° C. in a humidified 5% CO2 incubator and then fixed with 75% acetone-25% methanol solution. Plates were washed under running water and blocking solution (2% skimmed milk powder in PBS-Tween) was added to each well and plates incubated on a shaker for 1 h at 37° C. […]

[2] = In vitro bone marrow assay; assay type: cell-based; conditions: primary human bone marrow mononuclear cells, 5 days exposure, total cell count, read-out: Human Bone Marrow Tox IC50
Experimental: In vitro bone marrow assay—Chen, W., et al., J. Pharmacokinetics and Pharmacodynamics, 2020, 47, 163-182.
Primary human bone marrow mononuclear cells (Lonza) were cultured in stemline II hematopoietic stem cell expansion medium (Sigma Aldrich), supplemented with 5% FBS and under induction by the following cytokines (R&D Systems): 25 ng/mL stem cell factor (SCF), ng/mL G-CSF, 10 ng/mL granulocyte macrophage-colony stimulating factor, 3 U/mL erythropoietin (EPO), 15 ng/mL thrombopoietin (TPO), 10 ng/mL IL3, 10 ng/mL IL6, and ng/mL Flt3 ligand. Cell cultures were maintained in the 37° C., 5% CO2, and 98% humidity incubator (see reference for further details). Cells were preincubated for 1 day and were then exposed to either DMSO or compound for 5 additional days. Cell counts were determined manually using a hemocytometer from 10 μL aliquots and converted to the total cell number by adjusting for the volume of the cell culture medium in each well. While the total cell count included myeloid, erythroid, and megakaryocytic lineages, neutrophil precursors comprised the majority of the total cell population given the stimulatory conditions of the cell culture. […]

[3] = Relay method using human hepatocytes (clearance); assay type: in vitro ADME; conditions: human hepatocytes incubations under relay conditions
Source text: Relay Method Using Human Hepatocytes—Di, L., et al., Drug Metabolism and Disposition, 2012, 40, 1860-1865.
Pooled cryopreserved human hepatocytes of 10 donors were purchased from Celsis IVT (Baltimore, MD). This lot of pooled hepatocytes was used for all the studies. When selecting new lots of hepatocytes, enzyme activities need to be verified using marker compounds. Upon thawing, the hepatocytes were resuspended in Williams' medium E (custom formula number 91-5233EC; Invitrogen, Grand Island, NY) supplemented with HEPES and Na2CO3. The cells were counted using the trypan blue exclusion method, and the 24-well hepatocyte plates containing 0.5 million cells/ml were spiked with a compound at a final concentration of 1 μM (dimethyl sulfoxide, final concentration 0.025%; methanol, final concentration 0.125%), in a final incubation volume of 0.50 ml. […]
The LC mobile phases were as follows: (A) HPLC grade water containing 0.1% formic acid, and (B) acetonitrile containing 0.1% formic acid. […] Terfenadine was used as an internal standard for LC-MS/MS quantification in positive ion multiple reaction monitoring mode. All of the test compounds had good linearity with R^2>0.99, and the limit of quantitation was 1 nM for all of the compounds.
Human in vitro intrinsic clearance was calculated using methods as previously described in the reference above.

RSV = conditions: Antimicrobial Agents and Chemotherapy 2007 (Chapman et al); cited from earlier work

For `CCS(=O)(=O)c1ccc(-c2nn3c(c2C(=O)N[C@H]2N=C(c4ccccc4)c4cccc(F)c4NC2=O)OCC(C)(C)C3)c(F)c1` [Example 2, (S)-2-(4-(ethylsulfonyl)-2-fluorophenyl)-N-(9-fluoro-2-oxo-5-phenyl-2,3-dihydro-1H-benzo[e][1,4]diazepin-3-yl)-6,6-dimethyl-6,7-dihydro-5H-pyrazolo[5,1-b][1,3]oxazine-3-carboxamide], the logD [1] was 3, the EC50 (RSV A2) was 3.5 nM and the IC50 at 5 days [2] was > 40000 nM. For the same molecule, the “Human Hepatocyte CLint,app (mL/min/million)” value [3] was <0.14* mL/min/million.
In the case of `O=C(Nc1ccccc1F)N[C@H]1N=C(c2ccccc2)c2ccccc2NC1=O` [RSV604], the anti-RSV activity (RSV) is given as “sub-micromolar”.

From US20250228869A1, “Benzodiazepine Pyrazolo Carboxamides as N-protein Inhibitors” (Pfizer Inc., priority 2024, published 2025)
